# Test results: patent publication US7402696B2, “Benzene compounds” (Ajinomoto Co., Inc., priority 2004, dated 2008)
# Biological target: T1, ACC (acetyl CoA carboxylase) purified from liver of male SD rat (Rattus norvegicus, UniProt P11497)
# T1 construct: applied to a monomeric avidin sepharose column, and washed with buffer B. The ACC was eluted with buffer B containing 2 mM d-biotin; from tissue; host or cells: liver of male SD rat
# Test: Measurement of ACC inhibition activity ([14C]-NaHCO3 incorporation)
# Type: biochemical
# Details: ACC inhibition activity rate at 1 μM; Table 2-III, Mode 3 acetylene/oxadiazole/thiazole compounds (numbers = x-III); read-out: ACC Inhibition (%)
# Experimental: A male SD rat was deprived of food for two days and then fed a high-sucrose diet (component) for two days. While anesthetized with ether, the descending vena cava was cut upon, the animal was bled, and the liver was rapidly recovered. In an ice-cooled buffer solution A (225 mM mannitol, 75 mM sucrose, 10 mM Tris-HCl (pH 7.5), 0.05 mM EDTA, 5 mM potassium citrate, 2.5 mM MgCl2, 10 mg/L pepstatin A, 10 mg/L leupeptin, 1 mM PMSF), the liver was homogenized with a polytone homogenizer. A quantity of buffer A nine times the weight of the liver was added, the mixture was centrifuged for 10 minutes at 1,000 g, the supernatant was recovered, and the supernatant was centrifuged for another 10 minutes at 17,000 g.
# Ammonium sulfate was added to 35 percent saturation to the obtained supernatant. The mixture was stirred for 45 minutes and then centrifuged for 10 minutes at 17,000 g. Buffer solution B (100 mM Tris-HCl (pH 7.5), 500 mM NaCl, 1 mM EDTA, 0.1 mM DTT, 10 percent glycerol, 10 mg/L pepstatin A, 10 mg/L leupeptin, 0.5 mM PMSF) was added to the obtained precipitate and dissolved. The solution was then centrifuged for 20 minutes at 40,000 g. The supernatant was dialyzed overnight against buffer C (100 mM Tris-HCl (pH 7.5), 500 mM NaCl, 1 mM EDTA, 0.1 mM DTT, 5 percent glycerol).
# The dialyzed supernatant was passed through a […], applied to a monomeric avidin sepharose column, and washed with buffer B. The ACC was eluted with buffer B containing 2 mM d-biotin.
# (2 Measurement of ACC Inhibition Activity)
# The compounds synthesized in the above-described embodiments were dissolved in DMSO and charged to glass vials. 250 μL of ACC-containing reaction solution (40 mM Tris-HCl (pH 7.5), 40 mM MgCl2, 40 mM sodium citrate, and 2 mM DTT) was added. The mixture was heated for 30 minutes at 37° C. in a thermostatic chamber and then cooled with ice. To reaction solution 1 was added 250 μL of reaction solution 2 containing [14C]—NaHCO3 (40 mM Tris-HCl (pH 7.5), 2 mM DTT, 8 mM ATP, 0.5 mM acetyl CoA) and the mixture was heated for 10 minutes at 37° C. 100 μL of 1N HCl was added to stop the reaction. Water in the reaction solution was removed with a centrifugal evaporator, a scintillator was added, the solid component was dissolved, and the 14C radioactivity was measured with a liquid scintillation counter. The ACC inhibition activity of each compound was calculated from the following equation and converted to the ACC inhibition activity rate (%) at 1 μM.
# ACC inhibition rate (%)=(1−(a−c)/(b−c))×100 a. Radioactivity when test drug added b: Radioactivity when test drug not added c: Blank* *Reaction solution 1 to which 100 μL of 1N HCl was added before mixing reaction solution 1 and reaction solution 2
row,inhibition at 1 µM [%],SMILES
1,62,O=C(O)C1C=CC=CC1c1nc(-c2ccc(-c3csc(-c4ccc(C(F)(F)F)cc4)n3)cc2)no1 (stereo not drawn) [compound 49]
2,53,O=C(O)c1ccc(-c2nc(-c3ccc(-c4csc(-c5ccc(C(F)(F)F)cc5)n4)cc3)no2)cc1 [compound 51]
3,73,O=S(=O)(Nc1ccc(-c2csc(-c3ccc(C(F)(F)F)cc3)n2)cc1)c1cccc(S(=O)(=O)Nc2ccc(-c3csc(-c4ccc(C(F)(F)F)cc4)n3)cc2)c1 [compound 55]
4,64,O=C(O)CNC(=O)Nc1ccc(C#Cc2cccc(C(F)(F)F)c2)cc1 [compound 65]
5,73,O=C(Nc1ccc(C#Cc2cccc(C(F)(F)F)c2)cc1)NC(Cc1ccccc1)C(=O)O (stereo not drawn) [compound 66]
6,62,O=C1c2cccc3cccc(c23)C(=O)N1c1cccc(C#Cc2cccc(C(F)(F)F)c2)c1 [compound 70]
7,66,O=C1C(c2ccccc2)=C(c2ccccc2)C(=O)N1c1cccc(C#Cc2cccc(C(F)(F)F)c2)c1 [compound 74]
8,64,O=[N+]([O-])c1ccccc1S(=O)(=O)Nc1ccc(-c2csc(-c3ccccc3)n2)cc1 [compound 77]
9,55,O=S(=O)(Nc1ccc(-c2csc(-c3ccccc3)n2)cc1)c1ccccc1NO [compound 78]
10,63,O=[N+]([O-])c1ccccc1S(=O)(=O)Nc1cccc(-c2csc(-c3ccccc3)n2)c1 [compound 82]
11,65,Nc1cccc(S(=O)(=O)Nc2ccc(-c3csc(-c4ccccc4)n3)cc2)c1 [compound 91]

# Same assay, conditions: ACC inhibition activity rate at 1 μM; Table 3-I, Mode 1 quinoline compounds (numbers = x-I); read-out: ACC Inhibition (%)
row,inhibition at 1 µM [%],SMILES
1,62,CC(C)c1ccc(S(=O)(=O)NC(=O)CC(NC(=O)c2ccc3nc(-c4cc(C(F)(F)F)cc(C(F)(F)F)c4)ccc3c2)c2ccccc2)cc1 (stereo not drawn) [compound 49]
2,87,CC(C)c1ccc(S(=O)(=O)NC(=O)C[C@H](NC(=O)c2ccc3nc(-c4cc(C(F)(F)F)cc(C(F)(F)F)c4)ccc3c2)C2CCCCC2)cc1 [compound 50]
3,45,CCCCS(=O)(=O)NC(=O)CC1(NC(=O)c2ccc3nc(-c4cc(C(F)(F)F)cc(C(F)(F)F)c4)ccc3c2)CCCCC1 [compound 54]
4,70,CCCCS(=O)(=O)NC(=O)C1CCCCCC[C@@H]1NC(=O)c1ccc2nc(-c3cc(C(F)(F)F)cc(C(F)(F)F)c3)ccc2c1 (stereo partly drawn) [compound 55]
5,47,CCCCS(=O)(=O)NC(=O)CC(C)(NC(=O)c1ccc2nc(-c3cc(C(F)(F)F)cc(C(F)(F)F)c3)ccc2c1)c1ccccc1 (stereo not drawn) [compound 56]
6,59,CCCCS(=O)(=O)NC(=O)C1CCc2ccccc2[C@@H]1NC(=O)c1ccc2nc(-c3cc(C(F)(F)F)cc(C(F)(F)F)c3)ccc2c1 (stereo partly drawn) [compound 57]
7,46,CCCCS(=O)(=O)NC(=O)[C@@H]1C[C@@H]2C[C@@H](C2(C)C)[C@]1(C)NC(=O)c1ccc2nc(-c3cc(C(F)(F)F)cc(C(F)(F)F)c3)ccc2c1 [compound 58]
8,74,CCCCS(=O)(=O)NC(=O)[C@@H]1C[C@H]2C[C@H](C2(C)C)[C@@]1(C)NC(=O)c1ccc2nc(-c3cc(C(F)(F)F)cc(C(F)(F)F)c3)ccc2c1 [compound 59]
9,34,O=C(O)c1ccc(-c2ccc3nc(-c4cc(C(F)(F)F)cc(C(F)(F)F)c4)ccc3c2)o1 [compound 82]
10,98,CC(C)(C)c1ccc(C(=O)NS(=O)(=O)c2ccccc2NC(=O)c2ccc3nc(-c4cc(C(F)(F)F)cc(C(F)(F)F)c4)ccc3c2)cc1 [compound 83]
11,50,CCCCS(=O)(=O)NC(=O)CC(NC(=O)c1ccc2nc(-c3cc(C(F)(F)F)cc(C(F)(F)F)c3)ccc2c1)c1cccc2ccccc12 (stereo not drawn) [compound 94]

# Same assay, conditions: ACC inhibition activity rate at 1 μM; Table 4-IV, Mode 4 benzenediamine compounds (numbers = x-IV); read-out: ACC Inhibition (%)
row,inhibition at 1 µM [%],SMILES
1,100,CC(C)CCN(C)c1ccc(-c2noc(-c3cccc(C(=O)NS(=O)(=O)c4ccccc4)c3)n2)cc1NC(=O)OCc1ccccc1 [compound 44]
2,100,CC(C)CCN(C)c1ccc(-c2noc(-c3cccc(C(=O)NS(=O)(=O)c4ccccc4)c3)n2)cc1NCc1ccccc1 [compound 45]
3,100,CC(C)CCN(C)c1ccc(-c2noc(-c3cccc(C(=O)NS(=O)(=O)c4ccccc4)c3)n2)cc1NCC1CCCCC1 [compound 47]
4,87,CC(C)CCN(C)c1ccc(-c2noc(-c3cccc(C(=O)NS(=O)(=O)c4ccccc4)c3)n2)cc1NC(C)C [compound 48]
5,76,CC(C)CCN(C)c1ccc(-c2nc(-c3cccc(C(=O)NS(=O)(=O)c4ccccc4)c3)no2)cc1[N+](=O)[O-] [compound 51]
6,59,O=C(NS(=O)(=O)c1ccccc1)c1cccc(-c2noc(-c3ccc(NC4CC4)c([N+](=O)[O-])c3)n2)c1 [compound 52]
7,87,CC(C)CCN(C)c1ccc(C(=O)NC(CC(=O)NS(=O)(=O)c2ccccc2)C2CCCCC2)cc1NCc1ccccc1 (stereo not drawn) [compound 54]
8,90,CC(C)CCN(C)c1ccc(C(=O)NC(CC(=O)NS(=O)(=O)c2ccccc2)C2CCCCC2)cc1NCC1CCCCC1 (stereo not drawn) [compound 55]
9,100,CC(C)CCN(C)c1ccc(-c2noc(-c3cccc(C(=O)NS(=O)(=O)c4ccccc4)c3)n2)cc1N(CCCc1ccccc1)CCCc1ccccc1 [compound 56]
10,100,CC(C)CCN(C)c1ccc(-c2noc(-c3cccc(C(=O)NS(=O)(=O)c4ccccc4)c3)n2)cc1NCC1=CCCCC1 [compound 57]
11,100,CC(C)CCN(C)c1ccc(-c2noc(-c3cccc(C(=O)NS(=O)(=O)c4ccccc4)c3)n2)cc1NC1C=CCCC1 (stereo not drawn) [compound 59]
12,61,CC(C)CCN(C)c1ccc(-c2noc(-c3cccc(C(=O)NS(=O)(=O)c4ccccc4)c3)n2)cc1NCc1nccn1C [compound 60]
13,53,CN(C)CCNc1ccc(C(=O)Nc2cccc(C(=O)NS(=O)(=O)c3ccccc3)c2)cc1[N+](=O)[O-] [compound 62]
14,58,O=C(Nc1cccc(C(=O)NS(=O)(=O)c2ccccc2)c1)c1ccc(NCCN2CCCC2)c([N+](=O)[O-])c1 [compound 67]
15,56,Cc1ccccc1S(=O)(=O)NC(=O)CC(NC(=O)c1ccc(N(C)CCC(C)C)c(NCc2ccccc2)c1)C1CCCCC1 (stereo not drawn) [compound 82]
16,92,Cc1ccccc1S(=O)(=O)NC(=O)CC(NC(=O)c1ccc(N(C)CCC(C)C)c(NCC2CCCCC2)c1)C1CCCCC1 (stereo not drawn) [compound 83]
17,52,CC(C)CCN(C)c1ccc(C(=O)NC(CC(=O)NS(=O)(=O)c2ccccc2)C2CCCCC2)cc1NC(C)C (stereo not drawn) [compound 84]
18,59,CC(C)CCN(C)c1ccc(C(=O)NC(CC(=O)NS(=O)(=O)c2ccccc2)C2CCCCC2)cc1NC1CCC1 (stereo not drawn) [compound 85]
19,62,CC(C)CCN(C)c1ccc(C(=O)NC(CC(=O)NS(=O)(=O)c2ccccc2)C2CCCCC2)cc1NCc1ccco1 (stereo not drawn) [compound 90]
20,70,CC(C)CCN(C)c1ccc(C(=O)NC(CC(=O)NS(=O)(=O)c2ccccc2)C2CCCCC2)cc1NCc1cccs1 (stereo not drawn) [compound 91]
21,49,CC(C)CCN(C)c1ccc(C(=O)NC(CC(=O)NS(=O)(=O)c2ccccc2)C2CCCCC2)cc1NCc1nccs1 (stereo not drawn) [compound 92]
22,84,CC(C)CCN(C)c1ccc(C(=O)NC(CC(=O)NS(=O)(=O)c2ccccc2)C2CCCCC2)cc1N(C)Cc1ccccc1 (stereo not drawn) [compound 93]
23,96,CC(C)CCN(C)c1ccc(C(=O)NC(CC(=O)NS(=O)(=O)c2ccccc2)C2CCCCC2)cc1N(C)CC1CCCCC1 (stereo not drawn) [compound 94]
24,100,CC(C)CCN(C)c1ccc(-c2noc(-c3cccc(C(=O)NS(=O)(=O)c4ccccc4)c3)n2)cc1NCc1ccc(O)cc1 [compound 95]
25,95,CC(C)CCN(C)c1ccc(-c2noc(-c3cccc(C(=O)NS(=O)(=O)c4ccccc4)c3)n2)cc1NCc1cccc(O)c1 [compound 96]
26,98,CC(C)CCN(C)c1ccc(-c2noc(-c3cccc(C(=O)NS(=O)(=O)c4ccccc4)c3)n2)cc1NCc1ccccc1O [compound 97]
